Data as given in the supplement of paper PMC6045584.
± gives the standard deviation of the averaged measurements.

Assays:
SORAFENIB = compound: CNC(=O)c1cc(Oc2ccc(NC(=O)Nc3ccc(Cl)c(C(F)(F)F)c3)cc2)ccn1 [SORAFENIB]; assay: surviving fraction relative to DMSO-only wells; higher = less growth inhibition; conditions: exposure time: 5 days
How it was run: (§1)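 Log-phase tumour cells were seeded at 250–500 per well in 384-well plates and, from 24 hours after seeding, exposed continuously for five days to inhibitors at 0.5, 1, 5, 10, 50, 100, 500 and 1000 nM. Surviving fraction is CellTiter-Glo luminescence normalised to the median of DMSO-only wells. Luminescence was measured after 10 minutes at room temperature, and only lines screened three times with replicate Pearson r >0.7 and median Z' >0.3 were kept.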

[1] = compound: C[C@@H](Oc1cc(-c2cnn(C3CCNCC3)c2)cnc1N)c1c(Cl)ccc(F)c1Cl; assay: as above; conditions: exposure time: 5 days
How it was run: as §1

Test System	surviving fraction (SORAFENIB; 0.5 nM)	surviving fraction (SORAFENIB; 5 nM)	surviving fraction (SORAFENIB; 10 nM)	surviving fraction (SORAFENIB; 50 nM)	surviving fraction (SORAFENIB; 100 nM)	surviving fraction (SORAFENIB; 500 nM)	surviving fraction ([1]; 0.5 nM)	surviving fraction ([1]; 1 nM)	surviving fraction ([1]; 5 nM)	surviving fraction ([1]; 10 nM)	surviving fraction ([1]; 500 nM)	surviving fraction ([1]; 1000 nM)	surviving fraction (SORAFENIB; 1 nM)	surviving fraction ([1]; 50 nM)	surviving fraction ([1]; 100 nM)	surviving fraction (SORAFENIB; 1000 nM)
22RV1 PROSTATE	0.995 ± 0.029	0.974 ± 0.014	0.955 ± 0.025	1.09 ± 0.034	1.09 ± 0.064	1.11 ± 0.043	0.954 ± 0.079	1.01 ± 0.02	0.958 ± 0.022	0.944 ± 0.033	0.59 ± 0.078	0.406 ± 0.027				
93VU HEADNECK	0.961 ± 0.081	1.12 ± 0.051	1.19 ± 0.11	1.22 ± 0.1	1.17 ± 0.07		0.809 ± 0.025	0.816 ± 0.02	0.835 ± 0.043	0.866 ± 0.068	0.77 ± 0.02	0.521 ± 0.068	0.987 ± 0.091	1.08 ± 0.068	1.06 ± 0.083	
143B BONE			1.042 ± 0.0078	1.03 ± 0.06	1.02 ± 0.042		0.997 ± 0.012			0.997 ± 0.012	0.811 ± 0.039	0.643 ± 0.061	1.02 ± 0.018		1.002 ± 0.0092	0.962 ± 0.012
A549 LUNG	0.994 ± 0.032	1.01 ± 0.027			1.12 ± 0.043	1.12 ± 0.055		0.942 ± 0.01		0.909 ± 0.0099	1.009 ± 0.0093	0.552 ± 0.031	0.949 ± 0.017	1.01 ± 0.014	1.04 ± 0.064	1.04 ± 0.02
ASKA SYNOVIAL	1.12 ± 0.019	1.18 ± 0.024	1.12 ± 0.028	1.15 ± 0.031	1.15 ± 0.014	1.01 ± 0.023	0.873 ± 0.092	0.773 ± 0.061	0.78 ± 0.035	0.69 ± 0.044	0.246 ± 0.014	0.249 ± 0.014	1.07 ± 0.063	0.527 ± 0.028	0.415 ± 0.021	0.954 ± 0.045
BT20 BREAST		1.07 ± 0.23	1.07 ± 0.23	1.01 ± 0.33	0.951 ± 0.3		0.82 ± 0.047	0.792 ± 0.032	0.808 ± 0.092	0.821 ± 0.071	0.786 ± 0.04	0.468 ± 0.078	1.04 ± 0.26	1 ± 0.074	1 ± 0.052	
BT549 BREAST	1.2 ± 0.1	1.037 ± 0.01	1.15 ± 0.068	1.07 ± 0.081		1.09 ± 0.11	0.76 ± 0.093	0.99 ± 0.11		0.905 ± 0.019		0.371 ± 0.042	1.11 ± 0.17	1.1 ± 0.073		1.11 ± 0.16
C33A CERVIX		1.08 ± 0.084	1.07 ± 0.075	1.18 ± 0.17	1.23 ± 0.17	1.21 ± 0.069	1.01 ± 0.068		1.08 ± 0.13	1.14 ± 0.059	0.565 ± 0.028	0.515 ± 0.011	1.1 ± 0.17	1.06 ± 0.044		1.19 ± 0.13
CADOES1 SOFT TISSUE	1.02 ± 0.062	0.862 ± 0.035		0.972 ± 0.15	0.947 ± 0.1			0.89 ± 0.16	0.961 ± 0.088	0.936 ± 0.036	0.576 ± 0.054	0.291 ± 0.033		0.93 ± 0.042	0.941 ± 0.04	0.603 ± 0.19
CAL51 BREAST	0.979 ± 0.04	0.9937 ± 0.0025	1.01 ± 0.022	1.12 ± 0.046	1.1 ± 0.05	1.02 ± 0.034	0.958 ± 0.033	0.918 ± 0.099	1 ± 0.023	0.909 ± 0.049	0.215 ± 0.017	0.175 ± 0.0096	0.991 ± 0.014	0.972 ± 0.046	0.949 ± 0.026	0.977 ± 0.041
CAL72 BONE	1.06 ± 0.031	1.09 ± 0.026	1.05 ± 0.048	1.13 ± 0.039	1.121 ± 0.0063	1.09 ± 0.041	1 ± 0.02	1.04 ± 0.024	1.02 ± 0.029		0.903 ± 0.025	0.9047 ± 0.0064		1.09 ± 0.047	1.1 ± 0.013	1.08 ± 0.042
CAL120 BREAST	0.959 ± 0.026	0.931 ± 0.025		1.02 ± 0.014	1.01 ± 0.038	0.973 ± 0.023	0.912 ± 0.011		0.908 ± 0.029	0.898 ± 0.02	0.676 ± 0.091	0.547 ± 0.013	0.9315 ± 0.0074		0.935 ± 0.017	0.942 ± 0.032
CASKI CERVIX	0.895 ± 0.04	0.983 ± 0.044	0.969 ± 0.019	1.13 ± 0.077	1.13 ± 0.075	1.05 ± 0.019	0.829 ± 0.056	0.782 ± 0.081	0.816 ± 0.011		0.308 ± 0.018	0.303 ± 0.036	0.94 ± 0.054	0.925 ± 0.022	0.88 ± 0.014	0.865 ± 0.045
CHLA90 AUTONOMIC GANGLIA	0.992 ± 0.05		0.996 ± 0.037	1.13 ± 0.037	1.27 ± 0.062	1.38 ± 0.1	0.996 ± 0.039		0.855 ± 0.042		0.479 ± 0.029	0.328 ± 0.023	1.04 ± 0.039	0.812 ± 0.037	0.785 ± 0.019	1.5 ± 0.12
CME SYNOVIAL	1.23 ± 0.11	1.28 ± 0.072	1.38 ± 0.075	1.28 ± 0.058	1.4 ± 0.12	1.27 ± 0.073	0.902 ± 0.043		0.98 ± 0.25	0.902 ± 0.12	0.634 ± 0.054	0.272 ± 0.007	1.2 ± 0.07	1.04 ± 0.04	1.06 ± 0.14	1.15 ± 0.025
COLO320DM LARGE INTESTINE	1.13 ± 0.042	1.15 ± 0.029	1.07 ± 0.075	1.21 ± 0.14	1.11 ± 0.013	1.18 ± 0.2		1.13 ± 0.071	1.02 ± 0.041	0.977 ± 0.042	0.512 ± 0.0092	0.341 ± 0.011	1.06 ± 0.04	1.05 ± 0.042	1.02 ± 0.027	0.968 ± 0.074
DU4475 BREAST	1.07 ± 0.35	0.927 ± 0.29	0.999 ± 0.18	0.819 ± 0.25	0.939 ± 0.46	0.906 ± 0.31	0.798 ± 0.13	0.753 ± 0.041	0.83 ± 0.15	0.706 ± 0.14	0.423 ± 0.18	0.0877 ± 0.041	1.05 ± 0.2	0.748 ± 0.089	0.722 ± 0.23	0.769 ± 0.32
H23 LUNG	1.01 ± 0.03	1.06 ± 0.061	1.06 ± 0.033	1.32 ± 0.095	1.33 ± 0.031	1.38 ± 0.11	0.9503 ± 0.0081		0.963 ± 0.034		0.926 ± 0.049	0.688 ± 0.019		0.9953 ± 0.0047	0.993 ± 0.023	1.27 ± 0.073
HCC78 LUNG	0.864 ± 0.17		0.877 ± 0.085	1.02 ± 0.053		0.509 ± 0.068	0.898 ± 0.19	0.978 ± 0.1	1.05 ± 0.099	0.838 ± 0.16	0.166 ± 0.012	0.069 ± 0.021	0.826 ± 0.023	0.421 ± 0.08	0.455 ± 0.15	0.435 ± 0.098
HCC202 BREAST	1.23 ± 0.35	1.11 ± 0.18	1.02 ± 0.031	0.987 ± 0.055		0.897 ± 0.13	1.31 ± 0.55	1.08 ± 0.25	1.31 ± 0.015	1.05 ± 0.069				1.32 ± 0.23	1.37 ± 0.17	0.685 ± 0.15
